Reference: patent US12448399B2, “Cereblon-based KRAS degrading PROTACs and uses related thereto” (Arvinas Operations, Inc., priority 2023, dated 2025)

The compounds below were run against T1, KRas-G12D (Homo sapiens, UniProt P01116, G12D) (assay: HiBiT Degradation Assay (G12D), AsPC-1 HiBiT-KRasG12D cells, 24 hr). Settings: ASPC1, AsPC-1 cells, maximum degradation observed.
T1 construct: insert the HiBiT tag onto the N-terminus of one or more of the endogenous KRas alleles; host or cells: AsPC-1 HiBiT-KRasG12D knock-in clone (one tagged allele, two untagged KRasG12D alleles)
T1 sequence (P01116 1-188 isoform P01116-2 G12D): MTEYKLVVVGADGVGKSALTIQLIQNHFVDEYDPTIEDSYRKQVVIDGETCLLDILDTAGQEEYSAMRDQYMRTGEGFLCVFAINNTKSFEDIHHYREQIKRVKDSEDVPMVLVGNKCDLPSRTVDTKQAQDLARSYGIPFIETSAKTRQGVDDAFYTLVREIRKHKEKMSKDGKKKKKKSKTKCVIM
Assay type: cell-based
Method: AsPC-1 (CRL-1682) cells were purchased from ATCC and are homozygous for the G12D mutation in KRas. AsPC-1 cells were cultured in GIBCO RPMI-1640 (ThermoFisher Scientific, catalog #61870-036, with Glutamax, no HEPES, no Na Pyruvate) supplemented with 10% FBS (ThermoFisher Scientific, catalog #2060357) and 1× Penicillin-Streptomycin (ThermoFisher Scientific, catalog #15140122, 10000 U/ml, 100×). For degradation assays, 384 well plates were used. Alamar blue was purchased from ThermoFisher Scientific (A50101) and used according to manufacturer instructions. The Nano-Glo® HiBiT Lytic Detection System and Nano-Glo® HiBiT Blotting System were purchased from Promega (#N3050 and #N2410) and used according to manufacturer instructions.
To create the AsPC-1 HiBiT-KRasG12D cell line, CRISPR-Cas9 was used to insert the HiBiT tag onto the N-terminus of one or more of the endogenous KRas alleles. See Schwinn, M. K. et al. (2018) CRISPR-mediated tagging of endogenous proteins with a luminescent peptide, ACS Chem. Biol. 13(2), 467-474. After knock-in of the tag, individual clones were isolated by single cell dilution and screened for HiBiT insertion by PCR. A clone was identified that contained the desired HiBiT-KRasG12D sequence at one allele while the remaining two KRasG12D alleles were untagged. This clone was used in further studies.
AsPC-1 HiBiT-KRasG12D cells were plated at 9000 or 15,000 cells/well in a 384 well plate (Corning #3770). Compounds of the present disclosure and positive controls were diluted in the appropriate cell media and applied to the plated cells resulting in a final concentration titration of 10 μM to […] in 0.5% DMSO. Gambogic acid was used as a positive control for cytotoxicity and titrated from 10 μM to 78 nM. All assays were performed in triplicate. Cells were treated with compounds for 24 hr at 37° C. in an incubator containing 5% CO2. Following treatment, alamar blue was used to determine if any compounds led to a loss in cell viability after 24 hr. The 10× alamar blue reagent was added to a final concentration of 1× as recommended by the manufacturer and cells were returned to the incubator for 4 hr. Plates were then allowed to equilibrate to RT and fluorescence was measured using a Perkin-Elmer EnVision. After completion of the fluorescence read, the liquid from each well was removed and the cells were washed with PBS. The Nano-Glo® HiBiT detection reagent was prepared according to the manufacturer's instructions and added to each well after the PBS wash was removed. Following incubation at room temperature for 45 min, the luminescence was read using the ultra-sensitive luminescence aperture on the Envision instrument.
Fluorescence values from the alamar blue treatment were normalized to the DMSO-only control for each compound titration. HiBiT luminescence was normalized to the DMSO-only control and the fractional HiBiT signal was plotted versus the log of the PROTAC concentration and fit to a 4-parameter dose-response model to obtain the concentration of the compound that leads to half maximal degradation (DC50) as well as the maximum degradation observed (Dmax, conventionally expressed as a percentage of control).

Structure (SMILES)	Dmax [%]
CCc1cccc2cc(O)cc(-c3ncc4c(N5CC6CCC(C5)N6)nc(OCCN5CCC(CN6CC7(CCN(c8ccc9c(c8)CN(C8CCC(=O)NC8=O)C9=O)CC7)C6)CC5)nc4c3F)c12 (centres unmarked) [Compound 2]	> 70
CCc1cccc2cc(O)cc(-c3ncc4c(N5CC6CCC(C5)N6)nc(OCCN5CCN(CC6CCN(c7ccc(N8CCC(=O)NC8=O)c(F)c7)CC6)CC5)nc4c3F)c12 [Compound 14]	≤ 25
CCc1cccc2cc(O)cc(-c3ncc4c(N5CC6CCC(C5)N6)nc(OCCN5CCN(CC6CCN(c7ccc(F)c(C(=O)NC8CCC(=O)NC8=O)c7)CC6)CC5)nc4c3F)c12 (centres unmarked) [Compound 17]	≤ 25
CCc1cccc2cc(O)cc(-c3ncc4c(N5CC6CCC(C5)N6)nc(OCCN5CCC(CN6CCC(Oc7cccc8c7C(=O)N(C7CCC(=O)NC7=O)C8=O)CC6)CC5)nc4c3F)c12 (centres unmarked) [Compound 18]	≤ 25

Same assay, conditions: AsPC-1 cells

Structure (SMILES)	DC50 [nM]
CCc1cccc2cc(O)cc(-c3ncc4c(N5CC6CCC(C5)N6)nc(OCCN5CCC(CN6CC7(C6)CN(c6ccc8c(c6)C(=O)N(C6CCC(=O)NC6=O)C8=O)C7)CC5)nc4c3F)c12 (centres unmarked) [Compound 1]	100 to 5250
CCc1cccc2cc(O)cc(-c3ncc4c(N5CC6CCC(C5)N6)nc(OCCN5CCC(CN6CC7(CCN(c8ccc9c(c8)CN(C8CCC(=O)NC8=O)C9=O)CC7)C6)CC5)nc4c3F)c12 (centres unmarked) [Compound 2]	< 5100
CCc1cccc2cc(O)cc(-c3ncc4c(N5CC6CCC(C5)N6)nc(OCCN5CCC(CN6CCC7(CC6)CN(c6cccc8c6CN(C6CCC(=O)NC6=O)C8=O)C7)CC5)nc4c3F)c12 (centres unmarked) [Compound 3]	250 to 1000
CCc1cccc2cc(O)cc(-c3ncc4c(N5CC6CCC(C5)N6)nc(OCCN5CCN(CCN(C)[C@H]6C[C@H](Oc7ccc8c(c7)C(=O)N(C7CCC(=O)NC7=O)C8=O)C6)CC5)nc4c3F)c12 (some centres unmarked) [Compound 4]	> 1000
CCc1cccc2cc(O)cc(-c3ncc4c(N5CC6CCC(C5)N6)nc(OCCN5CCN(c6cc(N7CCN(c8ccc9c(c8)C(=O)N(C8CCC(=O)NC8=O)C9=O)CC7)ncn6)CC5)nc4c3F)c12 (centres unmarked) [Compound 5]	> 1000
CCc1cccc2cc(O)cc(-c3ncc4c(N5CC6CCC(C5)N6)nc(OCCN5CCN(CC6CCN(C(=O)c7ccc(OC)c(N8CCC(=O)NC8=O)c7)CC6)CC5)nc4c3F)c12 [Compound 6]	> 1000
CCc1cccc2cc(O)cc(-c3ncc4c(N5CC6CCC(C5)N6)nc(OCCN5CCN(c6cc(OC)c7c(c6)C(=O)N(C6CCC(=O)NC6=O)C7=O)CC5)nc4c3F)c12 (centres unmarked) [Compound 7]	> 1000
CCc1cccc2cc(O)cc(-c3ncc4c(N5CC6CCC(C5)N6)nc(OCCN5CCC(CN6CCC(Oc7ccc8c(c7)C(=O)N(C7CCC(=O)NC7=O)C8=O)CC6)CC5)nc4c3F)c12 (centres unmarked) [Compound 8]	250 to 1000
CCc1cccc2cc(O)cc(-c3ncc4c(N5CC6CCC(C5)N6)nc(OCCN5CCC(CN6CCN(c7cccc8c7CN(C7CCC(=O)NC7=O)C8=O)CC6)CC5)nc4c3F)c12 (centres unmarked) [Compound 9]	250 to 1000
CCc1cccc2cc(O)cc(-c3ncc4c(N5CC6CCC(C5)N6)nc(OCCN5CCC(CCCN6CCN(c7ccc8c(c7)C(=O)N(C7CCC(=O)NC7=O)C8=O)CC6)CC5)nc4c3F)c12 (centres unmarked) [Compound 10]	250 to 1000
CCc1cccc2cc(O)cc(-c3ncc4c(N5CC6CCC(C5)N6)nc(OCCN5CCC(CN(C)[C@H]6C[C@H](Oc7ccc8c(c7)C(=O)N(C7CCC(=O)NC7=O)C8=O)C6)CC5)nc4c3F)c12 (some centres unmarked) [Compound 11]	250 to 1000
CCc1cccc2cc(O)cc(-c3ncc4c(N5CC6CCC(C5)N6)nc(OCCN5CCC(CCC6CCN(c7ccc8c(c7)C(=O)N(C7CCC(=O)NC7=O)C8=O)CC6)CC5)nc4c3F)c12 (centres unmarked) [Compound 12]	> 1000
CCc1cccc2cc(O)cc(-c3ncc4c(N5CC6CCC(C5)N6)nc(OCCN5CCC(C(C)(C)N6CCN(c7ccc8c(c7)C(=O)N(C7CCC(=O)NC7=O)C8=O)CC6)CC5)nc4c3F)c12 (centres unmarked) [Compound 13]	250 to 1000
CCc1cccc2cc(O)cc(-c3ncc4c(N5CC6CCC(C5)N6)nc(OCCN5CCN(CC6CCN(c7ccc(N8CCC(=O)NC8=O)c(F)c7)CC6)CC5)nc4c3F)c12 [Compound 14]	250 to 1000
CCc1cccc2cc(O)cc(-c3ncc4c(N5CC6CCC(C5)N6)nc(OCCN5CCN(CC6CCN(c7ccc(OC)c(C(=O)NC8CCC(=O)NC8=O)c7)CC6)CC5)nc4c3F)c12 (centres unmarked) [Compound 15]	250 to 1000
CCc1cccc2cc(O)cc(-c3ncc4c(N5CC6CCC(C5)N6)nc(OCCN5CCC(Cn6cccc(CN7CCC(=O)NC7=O)c6=O)CC5)nc4c3F)c12 [Compound 16]	> 1000

Structure (SMILES)	DC50 [nM]
CCc1cccc2cc(O)cc(-c3ncc4c(N5CC6CCC(C5)N6)nc(OCCN5CCN(CC6CCN(c7ccc(F)c(C(=O)NC8CCC(=O)NC8=O)c7)CC6)CC5)nc4c3F)c12 (centres unmarked) [Compound 17]	250 to 1000
CCc1cccc2cc(O)cc(-c3ncc4c(N5CC6CCC(C5)N6)nc(OCCN5CCC(CN6CCC(Oc7cccc8c7C(=O)N(C7CCC(=O)NC7=O)C8=O)CC6)CC5)nc4c3F)c12 (centres unmarked) [Compound 18]	> 1000
CCc1cccc2cc(O)cc(-c3ncc4c(N5CC6CCC(C5)N6)nc(OCCN5CCC6(CC5)CCN(c5ccc7c(c5)C(=O)N(C5CCC(=O)NC5=O)C7=O)CC6)nc4c3F)c12 (centres unmarked) [Compound 19]	250 to 1000
CCc1cccc2cc(O)cc(-c3ncc4c(N5CC6CCC(C5)N6)nc(OCCN5CCC(CN6CCN(CC7CCN(c8ccc9c(c8)C(=O)C(C8CCC(=O)NC8=O)C9=O)CC7)CC6)CC5)nc4c3F)c12 (centres unmarked) [Compound 20]	100 to 5250
CCc1cccc2cc(O)cc(-c3ncc4c(N5CC6CCC(C5)N6)nc(OCCN5CCOC(CN6CCN(CC7CCN(c8ccc9c(c8)C(=O)N(C8CCC(=O)NC8=O)C9=O)CC7)CC6)C5)nc4c3F)c12 (centres unmarked) [Compound 21]	250 to 1000
CCc1cccc2cc(O)cc(-c3ncc4c(N5CC6CCC(C5)N6)nc(OCCN5CCC(CN6CCC7(CC6)CCN(c6ccc8c(c6)C(=O)N(C6CCC(=O)NC6=O)C8=O)CC7)CC5)nc4c3F)c12 (centres unmarked) [Compound 22]	100 to 5250
CCc1cccc2cc(O)cc(-c3ncc4c(N5CC6CCC(C5)N6)nc(OCCN5CCC(O[C@H]6CC[C@H](OC7CCN(c8cccc9c8CN(C8CCC(=O)NC8=O)C9=O)CC7)CC6)CC5)nc4c3F)c12 (some centres unmarked) [Compound 23]	250 to 1000
CCc1cccc2cc(O)cc(-c3ncc4c(N5CC6CCC(C5)N6)nc(OCCN5CCC(O[C@H]6C[C@H](OC7CCN(c8cccc9c8CN(C8CCC(=O)NC8=O)C9=O)CC7)C6)CC5)nc4c3F)c12 (some centres unmarked) [Compound 24]	100 to 5250
CCc1cccc2cc(O)cc(-c3ncc4c(N5CC6CCC(C5)N6)nc(OCCN5CCC6(CC5)CCN(CC5CCN(c7ccc8c(c7)C(=O)N(C7CCC(=O)NC7=O)C8=O)CC5)CC6)nc4c3F)c12 (centres unmarked) [Compound 25]	< 5100
CCc1cccc2cc(O)cc(-c3ncc4c(N5CC6CCC(C5)N6)nc(OCCN5CCC(COCC6CCN(c7ccc8c(c7)C(=O)N(C7CCC(=O)NC7=O)C8=O)CC6)CC5)nc4c3F)c12 (centres unmarked) [Compound 26]	250 to 1000
CCc1cccc2cc(O)cc(-c3ncc4c(N5CC6CCC(C5)N6)nc(OCCN5CCC(C6CCN(c7ccc8c(c7)C(=O)N(C7CCC(=O)NC7=O)C8=O)CC6)CC5)nc4c3F)c12 (centres unmarked) [Compound 27]	250 to 1000
CCc1cccc2cc(O)cc(-c3ncc4c(N5CC6CCC(C5)N6)nc(OCCN5CCC(CC6CCN(c7cccc8c7n(C)c(=O)n8C7CCC(=O)NC7=O)CC6)CC5)nc4c3F)c12 (centres unmarked) [Compound 28, 3-[4-[4-[[1-[2-[4-(3,8-diazabicyclo[3.2.1]octan-3-yl)-7-(8-ethyl-3-hydroxy-1-naphthyl)-8-fluoro-pyrido[4,3-d]pyrimidin-2-yl]oxyethyl]-4-piperidyl]methyl]-1-piperidyl]-3-methyl-2-oxo-benzimidazol-1-yl]piperidine-2,6-dione]	250 to 1000
CCc1cccc2cc(O)cc(-c3ncc4c(N5CC6CCC(C5)N6)nc(OCCN5CCC(F)(CC6CCN(c7cccc8c7CN(C7CCC(=O)NC7=O)C8=O)CC6)CC5)nc4c3F)c12 (centres unmarked) [Compound 29]	250 to 1000
CCc1cccc2cc(O)cc(-c3nc(N4CC5CCC(C4)N5)c4cnc(OCCN5CCC(CC6CCN(c7cccc8c7CN(C7(C)CCC(=O)NC7=O)C8=O)CC6)CC5)nc4c3F)c12 (centres unmarked) [Compound 30]	> 1000
CCc1cccc2cc(O)cc(-c3ncc4c(N5CC6CCC(C5)N6)nc(OCCN5CCC(CCN6CCN(c7ccc8c(c7)C(=O)N(C7CCC(=O)NC7=O)C8=O)CC6)CC5)nc4c3F)c12 (centres unmarked) [Compound 31]	100 to 5250
